Data on four compounds can be found in ChEMBL document CHEMBL3351462, “RORγt Modulators Are Potentially Useful for the Treatment of the Immune-Mediated Inflammatory Diseases” (ACS Med Chem Lett, 2014).

Assay [1] has as its target T1, Nuclear receptor ROR-gamma (Homo sapiens, UniProt P51449).
T1 sequence (P51449 whole entry): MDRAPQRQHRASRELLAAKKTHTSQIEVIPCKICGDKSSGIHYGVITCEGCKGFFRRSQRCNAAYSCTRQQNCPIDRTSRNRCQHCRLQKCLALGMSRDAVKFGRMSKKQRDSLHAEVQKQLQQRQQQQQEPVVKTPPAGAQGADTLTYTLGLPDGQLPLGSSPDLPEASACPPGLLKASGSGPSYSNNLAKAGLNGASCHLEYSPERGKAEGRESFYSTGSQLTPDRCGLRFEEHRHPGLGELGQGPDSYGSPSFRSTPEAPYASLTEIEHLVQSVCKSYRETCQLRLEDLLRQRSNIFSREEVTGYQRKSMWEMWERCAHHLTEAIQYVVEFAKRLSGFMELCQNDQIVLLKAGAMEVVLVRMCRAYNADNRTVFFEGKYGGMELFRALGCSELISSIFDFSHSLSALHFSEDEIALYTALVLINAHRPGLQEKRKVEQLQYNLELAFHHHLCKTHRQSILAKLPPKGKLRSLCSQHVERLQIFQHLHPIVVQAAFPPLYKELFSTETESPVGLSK
As to the kind of experiment: Binding affinity to human wild type RORgammat ligand binding domain expressed in Escherichia coli by thermofluor assay. On the technique in general: DSF heats the sample and reads unfolding from a dye or from intrinsic fluorescence.

Assay [2] addresses T1, Nuclear receptor ROR-gamma. Put plainly: Modulator activity at GAL4-tagged human RORgammat ligand binding domain expressed HEK293T cells by luciferase reporter gene assay. The format is cell-based, HEK-293T. For orientation: A reporter such as luciferase makes a cellular process visible.
Assay [3] deals with T2, Nuclear receptor ROR-gamma (Homo sapiens) (UniProt P51449).
T2 sequence (whole entry): T1 sequence (P51449 whole entry)
As to the kind of experiment: Modulator activity at GAL4-tagged human RORgammat ligand binding domain expressed HEK293T cells by luciferase reporter gene assay relative to untreated control. Type of assay: cell-based. The following applies: HEK-293T, concentration not given here.

Assay [4] has as its system T-cell. Put plainly: Inhibition of IL17 production in human CD4-positive T cells incubated for 3 days. As to conditions: 72 h. Type of assay: functional, cell-based.

In the case of `OC(c1ccncc1)(c1ccc2nc(Cl)c(Cc3ccc(Cl)cc3)c(Cl)c2c1)c1cncs1` (stereo not given), in assay [1], binding was characterised by a dissociation constant (Kd) of 0.83 nM. Moreover, the figures for the IC50 in assay [2] and in assay [4] were 6.5 nM and 85 nM, respectively. In addition, the inhibition (as a rule, how much of the control response was suppressed) in assay [3] is 85%.

For the compound `Cn1cncc1C(O)(c1ccc(Cl)cc1)c1ccc2nc(Cl)c(Cc3ccccc3)c(Cl)c2c1` (stereo not given), the inhibition in assay [3] is 72%. Further, the half-maximal inhibitory concentration (IC50) (in general, the midpoint of a concentration-inhibition curve) in assay [4] came to 590 nM.

Take `COc1nc2ccc(C(O)(c3sc(C)nc3C)c3cnnn3C)cc2c(Cl)c1Cc1ccc(C(F)(F)F)cc1` (stereo not given): the inhibition in assay [3] stood at 94%. The compound further returned an IC50 in assay [4] of 1.5 nM.

On to `Cn1cncc1C(O)(c1ccc(C(F)(F)F)nc1)c1ccc2nc(C#N)c(Cc3ccc(-n4cccn4)cc3)c(C#N)c2c1` (stereo not given), for which the inhibition in assay [3] was 99%. In assay [4], this compound yielded a half-inhibitory concentration (IC50) of 25 nM.
